Results from the CheMixHub ionic liquid set.

Assay: xn = mol fraction of the nth substance listed

C[NH2+]CCC=C1c2ccccc2CCc2ccccc21.[Cl-] + CC[n+]1ccn(C)c1.[Br-] + O
viscosity [mPa·s], 100 kPa
Settings	288.15 K	298.15 K	308.15 K	318.15 K
x1 = 0.0001985, x2 = 0.0001801	1.149	0.92	0.754	0.638
x1 = 0.0002171, x2 = 0.0007201	1.157	0.927	0.76	0.645
x1 = 0.0002197, x2 = 0.00126	1.164	0.936	0.768	0.653
x1 = 0.0005409, x2 = 0.0001801	1.158	0.928	0.761	0.646
x1 = 0.00056, x2 = 0.001259	1.173	0.944	0.776	0.662
x1 = 0.0005649, x2 = 0.0007199	1.166	0.935	0.768	0.653
x1 = 0.0009071, x2 = 0.0007196	1.176	0.944	0.776	0.66
x1 = 0.0009111, x2 = 0.00018	1.168	0.936	0.769	0.652
x1 = 0.0009287, x2 = 0.001259	1.183	0.952	0.784	0.67
x1 = 0.001275, x2 = 0.001258	1.194	0.962	0.792	0.678
x1 = 0.001279, x2 = 0.0001799	1.179	0.945	0.776	0.659
x1 = 0.001292, x2 = 0.0007194	1.187	0.953	0.784	0.667
x1 = 0.001649, x2 = 0.0007191	1.199	0.963	0.792	0.674
x1 = 0.001657, x2 = 0.0001799	1.19	0.954	0.784	0.666
x1 = 0.001661, x2 = 0.001258	1.206	0.972	0.8	0.686
x1 = 0.002001, x2 = 0.0001798	1.201	0.964	0.792	0.674
x1 = 0.002028, x2 = 0.0007188	1.211	0.974	0.8	0.681
x1 = 0.002029, x2 = 0.001257	1.218	0.982	0.809	0.694
x1 = 0.002358, x2 = 0.0001797	1.213	0.975	0.801	0.682
x1 = 0.002375, x2 = 0.001257	1.231	0.993	0.818	0.702
x1 = 0.002379, x2 = 0.0007186	1.223	0.984	0.808	0.689
x1 = 0.002737, x2 = 0.0001797	1.226	0.986	0.81	0.691
x1 = 0.002745, x2 = 0.001256	1.244	1.004	0.827	0.71
x1 = 0.002757, x2 = 0.0007183	1.236	0.994	0.817	0.698
x1 = 0.00309, x2 = 0.001256	1.258	1.015	0.836	0.718
x1 = 0.003104, x2 = 0.0001796	1.24	0.997	0.819	0.7
x1 = 0.003108, x2 = 0.000718	1.249	1.005	0.826	0.707
x1 = 0.003467, x2 = 0.0001795	1.255	1.008	0.829	0.709
x1 = 0.003489, x2 = 0.0007178	1.263	1.016	0.836	0.716
x1 = 0.00349, x2 = 0.001255	1.272	1.026	0.846	0.725

NCC(O)CO (stereo unspecified) + CC[n+]1ccn(C)c1.[Cl-]
101 kPa, x2 = 0.667
Settings	viscosity [mPa·s]
298.15 K	321
303.15 K	230
313.15 K	125.5
323.15 K	70.2
333.15 K	44.6

CCCC[N+](CCCC)(CCCC)CCCC.[Cl-] + CNCCO
101.3 kPa
Settings	viscosity [mPa·s]
293.15 K, x1 = 0.09104	29.5
298.15 K, x1 = 0.09104	22.9
298.15 K, x1 = 0.111	26.1
303.15 K, x1 = 0.1441	27
308.15 K, x1 = 0.1441	21.1
313.15 K, x1 = 0.1441	17.1
318.15 K, x1 = 0.09104	11.4
328.15 K, x1 = 0.111	7.84

CC[n+]1ccn(C)c1C.F[B-](F)(F)F + CO
101.3 kPa
Settings	viscosity [mPa·s]
293.15 K, x1 = 0.1313	1.92
298.15 K, x1 = 0.09153	1.35
298.15 K, x1 = 0.2607	3.98
303.15 K, x1 = 0.03641	0.859
303.15 K, x1 = 0.1313	1.64
308.15 K, x1 = 0.06083	1.022
308.15 K, x1 = 0.09153	1.167
308.15 K, x1 = 0.1313	1.51
313.15 K, x1 = 0.1848	1.92
318.15 K, x1 = 0.3768	5.52
323.15 K, x1 = 0.03641	0.664
323.15 K, x1 = 0.09153	0.947
323.15 K, x1 = 0.1313	1.21
328.15 K, x1 = 0.09153	0.874
328.15 K, x1 = 0.1313	1.132
328.15 K, x1 = 0.3768	4.55
333.15 K, x1 = 0.1313	1.065
333.15 K, x1 = 0.1848	1.41
